The record followed here is patent US20250313535A1, “ALPHA 4 BETA 7 INTEGRIN MODULATORS AND USES THEREOF” (DICE MOLECULES SV, INC., priority 2022, published 2025).

Holding throughout (type): cell-based
For experiment [1], the target named is T1, α4β7 integrin (Homo sapiens (Human), UniProt P13612+P26010). Put plainly: Integrin Adhesion Assay: Protocol 1 (MAdCAM-coated plate, RPMI-8866 cells, CellTiter GLO readout). In short, it runs like this:
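RPMI-8866 cells (2×10^6 per mL) added with compounds (1% DMSO) to MAdCAM-coated wells blocked in HEPES/NaCl buffer with 1 mM MnCl2, 0.1 mM CaCl2, 1% BSA; 1 h at 37° C, 5% CO2. After four washes, bound cells read by CellTiter GLO luminescence; % inhibition vs DMSO and control wells, 4-parameter fit.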
On the technique in general: In ATP-based viability assays light output follows the ATP content of the culture.

Experiment [2] addresses T2, α4β1 integrin (Homo sapiens (Human), UniProt P05556+P13612). Put plainly: Integrin Adhesion Assay: Protocol 2 (VCAM-coated plate, Jurkat cells, CellTiter GLO readout). To be noted: determined by at least one of the assays described (protocol not specified). The procedure: α4β7 and α4β1 inhibition was evaluated in vitro using at least one of the following procedures:
Integrin Adhesion Assay: Protocol 2
VCAM (R&D Systems, 0.1 ug) was diluted in 50 μL PBS, added to each well of an opaque ELISA plate (Thermo), and incubated overnight at 4° C. Coated plates were washed once with PBS and then blocked with 200 μL of assay buffer (10 mM HEPES, 150 mM NaCl, 1 mM MnCl2, 0.1 mM CaCl2), 1% BSA) for 1 hour at 37° C. and 5% CO2. After incubation, buffer was aspirated from the plates and 50 μL of fresh assay buffer was added. Compounds were added by compounds dispenser (Tecan) and DMSO concentration was normalized to 1% across each plate. 50 μL of Jurkat cells (2×10^6 per mL) were added to each well and the plates were incubated for 1 hour at 37° C. and 5% CO2. After incubation, plates were allowed to cool to RT for 10 minutes before being washed four times in assay buffer by an automated plate washer (BioTek). After washing, 100 μL of a 1:1 mixture of assay buffer and CellTiter GLO 2.0 reagent (Promega) were added to each well. Plates were mixed for 2 minutes at 1000 rpm and then allowed to incubate an additional 10 minutes before reading out luminescence on a Tecan Spark plate reader. Raw data was converted to percent inhibition based on DMSO only and control compound wells, and curves were analyzed by 4-parameter fit within Dotmatics software.

The target of experiment [3] is T2, α4β1 integrin. Put plainly: Integrin Adhesion Assay: Protocol 5 (VCAM-coated plate, RPMI-8866 cells with stable LOF mutation of the ITGB7 gene). The settings on record: RPMI-8866 cells with stable LOF mutation of the ITGB7 gene; read-out: Mean IC50 α4β1 KO^b. In short, it runs like this: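 RPMI-8866 B cells with CRISPR/Cas9 ITGB7 knockout (clonal, verified by flow cytometry) adhered to VCAM-coated wells for 1 h at 37° C in HEPES/NaCl buffer with 1 mM MnCl2, 0.1 mM CaCl2, 1% BSA, 1% DMSO. Bound cells quantified by CellTiter-Glo luminescence after washing; % inhibition versus DMSO and control, 4-parameter fit.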

Experiment [4] concerns the target T1, α4β7 integrin. Put plainly: Integrin Adhesion Assay: Protocol 4 (MAdCAM-coated plate, RPMI-8866 cells with stable LOF mutation of the ITGB1 gene). To be noted: RPMI-8866 cells with stable LOF mutation of the ITGB1 gene; read-out: Mean IC50 α4β7 KO^a. In short, it runs like this:
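RPMI-8866 cells with CRISPR/Cas9 knockout of ITGB1 (2×10^6/mL) were added to MAdCAM-coated wells with compound (1% DMSO) in HEPES/NaCl buffer with 1 mM MnCl2, 0.1 mM CaCl2 and 1% BSA, then incubated 1 h at 37 °C. After four washes, adherent cells were quantified by CellTiter-Glo luminescence. Percent inhibition versus DMSO and control compound was fitted to 4-parameter curves.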

[5] abbreviates: integrin adhesion assay, determined by at least one of the assays described (protocol not specified).

T2 sequence (P13612 34-1032): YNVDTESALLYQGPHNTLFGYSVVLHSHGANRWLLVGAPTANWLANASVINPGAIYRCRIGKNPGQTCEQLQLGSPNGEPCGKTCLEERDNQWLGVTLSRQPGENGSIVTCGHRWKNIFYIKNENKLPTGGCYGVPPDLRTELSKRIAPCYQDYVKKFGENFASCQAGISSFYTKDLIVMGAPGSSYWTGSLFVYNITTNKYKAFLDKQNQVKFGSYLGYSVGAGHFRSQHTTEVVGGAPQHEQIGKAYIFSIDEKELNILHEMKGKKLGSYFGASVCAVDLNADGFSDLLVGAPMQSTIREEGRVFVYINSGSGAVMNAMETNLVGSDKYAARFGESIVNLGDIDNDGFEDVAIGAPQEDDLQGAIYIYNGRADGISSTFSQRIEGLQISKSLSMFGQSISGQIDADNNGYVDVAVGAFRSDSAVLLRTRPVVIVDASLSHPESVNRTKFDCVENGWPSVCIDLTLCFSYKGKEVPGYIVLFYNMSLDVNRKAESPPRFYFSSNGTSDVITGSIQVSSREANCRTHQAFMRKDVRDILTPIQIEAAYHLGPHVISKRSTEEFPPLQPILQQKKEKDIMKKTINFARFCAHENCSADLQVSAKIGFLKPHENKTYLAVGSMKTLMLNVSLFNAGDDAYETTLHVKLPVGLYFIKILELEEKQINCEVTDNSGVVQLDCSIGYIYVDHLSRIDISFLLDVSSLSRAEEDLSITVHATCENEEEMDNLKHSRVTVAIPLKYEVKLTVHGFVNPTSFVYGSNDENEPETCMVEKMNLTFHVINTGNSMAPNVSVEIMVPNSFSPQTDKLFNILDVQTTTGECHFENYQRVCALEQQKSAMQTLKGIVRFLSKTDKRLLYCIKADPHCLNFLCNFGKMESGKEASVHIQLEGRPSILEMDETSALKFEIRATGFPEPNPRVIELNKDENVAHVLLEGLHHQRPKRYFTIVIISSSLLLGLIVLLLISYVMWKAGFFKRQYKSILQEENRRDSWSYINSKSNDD
T2 sequence (P05556 21-798): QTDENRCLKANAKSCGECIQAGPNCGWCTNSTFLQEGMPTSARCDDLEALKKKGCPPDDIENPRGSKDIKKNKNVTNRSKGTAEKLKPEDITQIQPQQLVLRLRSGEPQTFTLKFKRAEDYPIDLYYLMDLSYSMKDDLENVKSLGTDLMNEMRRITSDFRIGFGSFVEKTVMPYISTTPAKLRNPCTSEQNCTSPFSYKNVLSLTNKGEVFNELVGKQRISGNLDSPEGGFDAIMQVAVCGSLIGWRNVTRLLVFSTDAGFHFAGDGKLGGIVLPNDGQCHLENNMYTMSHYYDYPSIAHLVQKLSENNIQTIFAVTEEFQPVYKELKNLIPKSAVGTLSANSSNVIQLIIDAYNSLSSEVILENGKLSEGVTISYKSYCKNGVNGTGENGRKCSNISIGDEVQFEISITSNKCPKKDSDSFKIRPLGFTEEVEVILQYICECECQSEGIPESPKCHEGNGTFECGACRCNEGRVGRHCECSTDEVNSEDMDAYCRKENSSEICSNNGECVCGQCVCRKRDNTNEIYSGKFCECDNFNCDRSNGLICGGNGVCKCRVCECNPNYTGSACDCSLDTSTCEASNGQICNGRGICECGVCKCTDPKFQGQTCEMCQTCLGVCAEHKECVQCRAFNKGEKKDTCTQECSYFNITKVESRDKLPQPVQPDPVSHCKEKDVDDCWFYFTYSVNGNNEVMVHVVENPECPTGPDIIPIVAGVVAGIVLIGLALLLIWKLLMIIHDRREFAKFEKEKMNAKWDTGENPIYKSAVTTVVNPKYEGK
T1 sequence (P13612 34-1032): as the sequence (P13612 34-1032) above
T1 sequence (P26010 20-798): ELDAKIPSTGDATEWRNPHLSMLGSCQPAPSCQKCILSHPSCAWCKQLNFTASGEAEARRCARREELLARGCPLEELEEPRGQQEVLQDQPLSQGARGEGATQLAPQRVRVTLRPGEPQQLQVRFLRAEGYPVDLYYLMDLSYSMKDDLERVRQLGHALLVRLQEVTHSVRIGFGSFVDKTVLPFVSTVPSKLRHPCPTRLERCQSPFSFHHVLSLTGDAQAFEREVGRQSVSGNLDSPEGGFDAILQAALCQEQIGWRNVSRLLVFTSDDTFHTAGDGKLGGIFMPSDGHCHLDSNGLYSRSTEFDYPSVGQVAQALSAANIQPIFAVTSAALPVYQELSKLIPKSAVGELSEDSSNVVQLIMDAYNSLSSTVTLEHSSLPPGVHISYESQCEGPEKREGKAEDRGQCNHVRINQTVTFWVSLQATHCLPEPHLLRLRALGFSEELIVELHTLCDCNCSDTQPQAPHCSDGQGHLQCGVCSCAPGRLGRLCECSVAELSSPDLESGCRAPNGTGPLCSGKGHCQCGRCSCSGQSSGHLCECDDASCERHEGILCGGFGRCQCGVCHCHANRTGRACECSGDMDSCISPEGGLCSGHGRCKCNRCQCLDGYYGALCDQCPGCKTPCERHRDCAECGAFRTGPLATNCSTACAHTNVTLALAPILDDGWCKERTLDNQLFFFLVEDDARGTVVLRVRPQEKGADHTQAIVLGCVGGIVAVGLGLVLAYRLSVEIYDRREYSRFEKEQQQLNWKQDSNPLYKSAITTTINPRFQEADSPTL

Usually IC50 stands for the midpoint of a concentration-inhibition curve. `Cn1ccc(=O)n([C@@H]2CCc3c(C[C@H](NC(=O)c4c(F)cccc4F)C(=O)O)cccc32)c1=O` (single isomer, unassigned) [Compound 281]: the half-maximal inhibitory concentration (IC50) in experiment [1] (setting [5]) is 10 to 100 nM; in experiment [2], more than 1000 nM.

As for `Cn1ccc(=O)n([C@H]2CCc3c(C[C@H](NC(=O)c4c(F)cccc4F)C(=O)O)cccc32)c1=O` (single isomer, unassigned) [Compound 282], the figures for the IC50 in experiment [1] (setting [5]) and in experiment [2] were 100 to 1000 nM and more than 1000 nM, respectively.

As for `CN(C)Cc1cccc2c(-c3cccc4c(C[C@H](NC(=O)[C@]5(C)CC[C@H](N6CCOC[C@@H]6C(F)(F)F)CC5)C(=O)O)cccc34)nccc12` (single isomer, unassigned) [Compound 419], the figures for the 50% inhibitory concentration (IC50) in experiment [3], in experiment [1] and in experiment [4] were more than 1000 nM, 10 to 100 nM and 10 to 100 nM, respectively.

On to `Cn1ccc(=O)n(-c2cccc3c(C[C@H](NC(=O)c4c(F)cccc4F)C(=O)O)cccc23)c1=O` [Compound 1], for which the IC50 lay in the range of 10 to 100 nM in experiment [1] (setting [5]) and 100 to 1000 nM in experiment [2].

As for `O=C(N[C@@H](Cc1cccc2c(-n3c(=O)ccc4cnccc43)cccc12)C(=O)O)c1c(F)cccc1F` [Compound 2], the IC50 in experiment [1] (setting [5]) is less than 10 nM; in experiment [2], more than 1000 nM.

With `Cc1cccc(C)c1-c1ccc(F)c(C(=O)N[C@@H](Cc2cccc3c(-c4c(C(F)(F)F)c5ccccc5n(C)c4=O)cccc23)C(=O)O)c1F` [Compound 307], the IC50 in experiment [3] is more than 1000 nM; in experiment [1], 100 to 1000 nM; in experiment [4], 100 to 1000 nM.

As to `Cc1cccnc1-c1ccc(F)c(C(=O)N[C@@H](Cc2cccc3c(-c4c(C(F)(F)F)c5ccccc5n(C)c4=O)cccc23)C(=O)O)c1F` [Compound 316], the half-inhibitory concentration (IC50) in experiment [3] was more than 1000 nM; in experiment [1], 100 to 1000 nM; in experiment [4], 10 to 100 nM.

`Cn1c(=O)c(-c2cccc3c(C[C@H](NC(=O)C4(C(F)(F)F)CCN(CC(F)(F)F)CC4)C(=O)O)cccc23)c(C(F)(F)F)c2ccccc21` [Compound 352]: the values for the IC50 in experiment [3], in experiment [1] and in experiment [4] were 100 to 1000 nM, 10 to 100 nM and 10 to 100 nM, respectively.

Consider `Cn1c(=O)c(-c2cccc3c(C[C@H](NC(=O)c4c(F)cc(N5CCCCC5)cc4F)C(=O)O)cccc23)c(C(F)(F)F)c2ccccc21` [Compound 354], for which the concentration for half-maximal inhibition (IC50) is more than 1000 nM in experiment [3], 100 to 1000 nM in experiment [1] and 100 to 1000 nM in experiment [4].

With `Cc1cccc(F)c1C(=O)N[C@@H](Cc1cccc2c(-c3c(C(F)(F)F)c4ccccc4n(C)c3=O)cccc12)C(=O)O` [Compound 355], the half-inhibitory concentration (IC50) in experiment [3] was more than 1000 nM; in experiment [1], 10 to 100 nM; in experiment [4], 10 to 100 nM.

Take `Cn1c(=O)c(-c2cccc3c(C[C@H](NC(=O)c4c(F)cc(C5CCOCC5)cc4F)C(=O)O)cccc23)c(C(F)(F)F)c2ccccc21` [Compound 373]: the 50% inhibitory concentration (IC50) was more than 1000 nM in experiment [3], 100 to 1000 nM in experiment [1] and 100 to 1000 nM in experiment [4].

For `Cn1c(=O)c(-c2cccc3c(C[C@H](NC(=O)[C@]4(C)CC[C@@H](N5CCS(=O)(=O)CC5)CC4)C(=O)O)cccc23)c(C(F)(F)F)c2ccccc21` [Compound 403], the values for the half-maximal inhibitory concentration (IC50) in experiment [3], in experiment [1] and in experiment [4] were more than 1000 nM, 10 to 100 nM and 10 to 100 nM, respectively.

`CN(C)c1ccc2c(c1)c(C(F)(F)F)c(-c1cccc3c(C[C@H](NC(=O)[C@]4(C)CC[C@@H](N5CCC(F)(F)CC5)CC4)C(=O)O)cccc13)c(=O)n2C` [Compound 411]: the values for the half-maximal inhibitory concentration (IC50) in experiment [3], in experiment [1] and in experiment [4] were more than 1000 nM, 100 to 1000 nM and 100 to 1000 nM, respectively.

On to `Cn1c(=O)c(-c2cccc3c(C[C@H](NC(=O)[C@]4(C(F)(F)F)CC[C@@H](N5CCOC[C@@H]5C(F)(F)F)CC4)C(=O)O)cccc23)c(C(F)(F)F)c2ccccc21` [Compound 422], for which the IC50 in experiment [3] is more than 1000 nM; in experiment [1] it was 10 to 100 nM; in experiment [4] it was 100 to 1000 nM.
